{"source": "patent US20110118238A1", "about": "“2-ANILINOPURIN-8-ONES AS INHIBITORS OF TTK/MPS1 FOR THE TREATMENT OF PROLIFERATIVE DISORDERS” (ASTRAZENECA AB, priority 2007, published 2011)", "key": {"[1]": {"target": "T1, N-terminal GST tagged full length human TTK kinase (Homo sapiens, UniProt P33981)", "T1 construct": "N-terminal GST tagged full length human TTK kinase; GST (N); made in house; host or cells: insect cells", "T1 sequence (P33981 1-857)": "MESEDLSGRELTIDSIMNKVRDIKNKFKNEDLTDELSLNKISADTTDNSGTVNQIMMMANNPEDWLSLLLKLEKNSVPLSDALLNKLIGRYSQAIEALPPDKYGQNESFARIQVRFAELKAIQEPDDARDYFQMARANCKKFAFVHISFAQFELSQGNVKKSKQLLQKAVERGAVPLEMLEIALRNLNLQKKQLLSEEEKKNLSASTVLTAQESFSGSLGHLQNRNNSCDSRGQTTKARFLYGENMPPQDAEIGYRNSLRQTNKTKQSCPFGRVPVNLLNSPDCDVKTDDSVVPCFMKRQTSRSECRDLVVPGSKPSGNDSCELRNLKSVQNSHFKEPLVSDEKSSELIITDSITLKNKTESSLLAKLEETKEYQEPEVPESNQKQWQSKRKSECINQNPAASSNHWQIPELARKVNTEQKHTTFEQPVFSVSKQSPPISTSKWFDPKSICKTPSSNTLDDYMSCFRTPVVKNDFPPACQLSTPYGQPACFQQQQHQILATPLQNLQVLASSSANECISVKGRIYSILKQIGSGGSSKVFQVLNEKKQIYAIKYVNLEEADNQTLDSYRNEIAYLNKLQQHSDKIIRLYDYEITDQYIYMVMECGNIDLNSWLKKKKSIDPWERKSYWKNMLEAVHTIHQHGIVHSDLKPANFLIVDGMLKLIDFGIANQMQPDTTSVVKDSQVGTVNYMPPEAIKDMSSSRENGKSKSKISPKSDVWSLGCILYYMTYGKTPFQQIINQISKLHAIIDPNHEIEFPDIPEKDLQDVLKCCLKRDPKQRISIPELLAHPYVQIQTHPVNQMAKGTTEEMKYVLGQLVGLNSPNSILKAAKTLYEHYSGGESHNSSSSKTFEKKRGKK", "test": "In Vitro TTK Kinase Assay 2 (Caliper LabChip LC3000)", "assay_type": "biochemical", "details": "recombinant TTK, 12 μM ATP, read-out: EAA2: Enzyme Assay Activity (In Vitro TTK kinase assay 2)", "description": "Each reaction was stopped by the addition of EDTA to a concentration of 40 mM in a solution which also comprised 0.1% coating reagent (Caliper LS), 100 mM HEPES pH 7.5, 0.015% v/v Brij™-35 and 5% DMSO. The stopped enzyme reactions were sipped through capillaries onto a Caliper chip where the peptide substrate and phosphorylated product were separated and detected via laser-induced fluorescence."}, "[2]": {"target": "T1, N-terminal GST tagged full length human TTK kinase", "test": "In Vitro TTK Kinase Assay 1 (AlphaScreen)", "assay_type": "biochemical", "details": "recombinant TTK, 10 μM ATP, read-out: EAA: Enzyme Assay Activity (In Vitro TTK kinase assay 1)", "description": "Aliquots (2 μL) of each compound dilution were placed into wells of a Greiner 384-well low volume white polystyrene plate (Greiner Bio-one).\nThe resultant signals arising from laser light excitation at 680 nm were read using a Packard Envision instrument."}}, "note": "pIC50: −log10 of the molar value."}
{"molecule": "4-[(9-Cyclopentyl-7-ethyl-8-oxo-8,9-dihydro-7H-purin-2-yl)-amino]-3-methoxy-N-(1-methylpiperidin-4-yl)benzamide [Example 33]", "values": [{"measurement": "pIC50", "setting": "[1]", "result": 7.42}, {"measurement": "pIC50", "setting": "[2]", "result": 6.40}]}
{"molecule": "COc1cc(C(=O)NC2CCN(C)CC2)ccc1Nc1ncc2c(n1)n(C1CCCC1)c(=O)n2C", "note": "[Example 1]", "values": [{"measurement": "pIC50", "setting": "[1]", "result": 7.19}, {"measurement": "pIC50", "setting": "[2]", "result": 6.21}]}
{"molecule": "Cc1cc(S(N)(=O)=O)ccc1Nc1ncc2c(n1)n(C1CCCC1)c(=O)n2C", "note": "[Example 2, 4-[(9-Cyclopentyl-7-methyl-8-oxo-8,9-dihydro-7H-purin-2-yl)-amino]-3-methylbenzenesulfonamide]", "values": [{"measurement": "pIC50", "setting": "[1]", "result": 7.78}, {"measurement": "pIC50", "setting": "[2]", "result": 5.89}]}
{"molecule": "COc1cc(N2CCN(C)CC2)ccc1Nc1ncc2c(n1)n(C1CCCC1)c(=O)n2C", "note": "[Example 4, 9-Cyclopentyl-2-{[2-methoxy-4-(4-methylpiperazin-1-yl)-phenyl]amino}-7-methyl-7,9-dihydro-8H-purin-8-one]", "values": [{"measurement": "pIC50", "setting": "[1]", "result": 7.64}, {"measurement": "pIC50", "setting": "[2]", "result": 6.67}]}
{"molecule": "COc1cc(N2CCOCC2)ccc1Nc1ncc2c(n1)n(C1CCCC1)c(=O)n2C", "note": "[Example 6, 9-Cyclopentyl-2-[(2-methoxy-4-morpholin-4-ylphenyl)-amino]-7-methyl-7,9-dihydro-8H-purin-8-one]", "values": [{"measurement": "pIC50", "setting": "[1]", "result": 7.11}, {"measurement": "pIC50", "setting": "[2]", "result": 6.40}]}
{"molecule": "COc1cc(NS(C)(=O)=O)ccc1Nc1ncc2c(n1)n(C1CCCC1)c(=O)n2C", "note": "[Example 7, N-{4-[(9-Cyclopentyl-7-methyl-8-oxo-8,9-dihydro-7H-purin-2-yl)-amino]-3-methoxyphenyl}methanesulfonamide]", "values": [{"measurement": "pIC50", "setting": "[1]", "result": 7.51}, {"measurement": "pIC50", "setting": "[2]", "result": 6.15}]}
{"molecule": "CN1CCC(NC(=O)c2ccc(Nc3ncc4c(n3)n(C3CCCC3)c(=O)n4C)cc2F)CC1", "note": "[Example 8, 4-[(9-Cyclopentyl-7-methyl-8-oxo-8,9-dihydro-7H-purin-2-yl)-amino]-2-fluoro-N-(1-methylpiperidin-4-yl)benzamide]", "values": [{"measurement": "pIC50", "setting": "[1]", "result": 6.20}, {"measurement": "pIC50", "setting": "[2]", "result": 5.41}]}
{"molecule": "CNC(=O)c1ccc(Nc2ncc3c(n2)n(C2CCCC2)c(=O)n3C)c(OC)c1", "note": "[Example 9, 4-[(9-Cyclopentyl-7-methyl-8-oxo-8,9-dihydro-7H-purin-2-yl)amino]-3-methoxy-N-methylbenzamide]", "values": [{"measurement": "pIC50", "setting": "[1]", "result": 7.49}, {"measurement": "pIC50", "setting": "[2]", "result": 6.48}]}
{"molecule": "COc1cc(C(=O)N2CCCC2)ccc1Nc1ncc2c(n1)n(C1CCCC1)c(=O)n2C", "note": "[Example 10, 9-Cyclopentyl-2-{[2-methoxy-4-(pyrrolidin-1-ylcarbonyl)-phenyl]amino}-7-methyl-7,9-dihydro-8H-purin-8-one]", "values": [{"measurement": "pIC50", "setting": "[1]", "result": 7.71}, {"measurement": "pIC50", "setting": "[2]", "result": 5.98}]}
{"molecule": "Cn1c(=O)n(C2CCCC2)c2nc(Nc3ccc(S(N)(=O)=O)cc3)ncc21", "note": "[Example 11, 4-[(9-Cyclopentyl-7-methyl-8-oxo-8,9-dihydro-7H-purin-2-yl)-amino]benzenesulfonamide]", "values": [{"measurement": "pIC50", "setting": "[1]", "result": 6.78}, {"measurement": "pIC50", "setting": "[2]", "result": 5.02}]}
{"molecule": "Cn1c(=O)n(C2CCCC2)c2nc(Nc3ccc(N4CCS(=O)(=O)CC4)cc3)ncc21", "note": "[Example 12, 9-Cyclopentyl-2-{[4-(1,1-dioxidothiomorpholin-4-yl)-phenyl]-amino}-7-methyl-7,9-dihydro-8H-purin-8-one]", "values": [{"measurement": "pIC50", "setting": "[1]", "result": 7.82}, {"measurement": "pIC50", "setting": "[2]", "result": 5.93}]}
{"molecule": "COc1cc(C(=O)NC2CC3CCCC(C2)N3C)ccc1Nc1ncc2c(n1)n(C1CCCC1)c(=O)n2C", "note": "(centres unmarked) [Example 14, 4-[(9-Cyclopentyl-7-methyl-8-oxo-8,9-dihydro-7H-purin-2-yl)-amino]-3-methoxy-N-(9-methyl-9-azabicyclo[3.3.1]non-3-yl)benzamide]", "values": [{"measurement": "pIC50", "setting": "[1]", "result": 7.16}, {"measurement": "pIC50", "setting": "[2]", "result": 5.81}]}
{"molecule": "CN1CCC(NC(=O)c2ccc(Nc3ncc4c(n3)n(C3CCCC3)c(=O)n4C)c(Cl)c2)CC1", "note": "[Example 15, 3-Chloro-4-[(9-cyclopentyl-7-methyl-8-oxo-8,9-dihydro-7H-purin-2-yl)amino]-N-(1-methylpiperidin-4-yl)benzamide]", "values": [{"measurement": "pIC50", "setting": "[1]", "result": 6.63}, {"measurement": "pIC50", "setting": "[2]", "result": 5.49}]}
{"molecule": "CN1C2CCCC1CC(NC(=O)c1ccc(Nc3ncc4c(n3)n(C3CCCC3)c(=O)n4C)c(F)c1)C2", "note": "(centres unmarked) [Example 16, 4-[(9-Cyclopentyl-7-methyl-8-oxo-8,9-dihydro-7H-purin-2-yl)-amino]-3-fluoro-N-(9-methyl-9-azabicyclo[3.3.1]non-3-yl)-benzamide]", "values": [{"measurement": "pIC50", "setting": "[1]", "result": 6.50}, {"measurement": "pIC50", "setting": "[2]", "result": 5.77}]}
{"molecule": "CCN1CCC(NC(=O)c2cc(F)c(Nc3ncc4c(n3)n(C3CCCC3)c(=O)n4C)cc2F)CC1", "note": "[Example 17, 4-[(9-Cyclopentyl-7-methyl-8-oxo-8,9-dihydro-7H-purin-2-yl)-amino]-N-(1-ethylpiperidin-4-yl)-2,5-difluorobenzamide]", "values": [{"measurement": "pIC50", "setting": "[1]", "result": 5.70}, {"measurement": "pIC50", "setting": "[2]", "result": 5.03}]}
{"molecule": "COc1cc(C2CCN(C)CC2)ccc1Nc1ncc2c(n1)n(C(C)C)c(=O)n2C", "note": "[Example 47, 9-Isopropyl-2-{[2-methoxy-4-(1-methylpiperidin-4-yl)phenyl]-amino}-7-methyl-7,9-dihydro-8H-purin-8-one]", "values": [{"measurement": "pIC50", "setting": "[2]", "result": 5.25}]}
{"molecule": "COc1cc(C(=O)N[C@@H]2CCNC2)ccc1Nc1ncc2c(n1)n(C1CCCC1)c(=O)n2C", "note": "[Example 68, 4-[(9-Cyclopentyl-7-methyl-8-oxo-8,9-dihydro-7H-purin-2-yl)-amino]-3-methoxy-N-[(3R)-pyrrolidin-3-yl]benzamide]", "values": [{"measurement": "pIC50", "setting": "[1]", "result": 7.19}]}
{"molecule": "COc1cc(C(=O)N[C@H]2CCNC2)ccc1Nc1ncc2c(n1)n(C1CCCC1)c(=O)n2C", "note": "[Example 69, 4-[(9-Cyclopentyl-7-methyl-8-oxo-8,9-dihydro-7H-purin-2-yl)-amino]-3-methoxy-N-[(3S)-pyrrolidin-3-yl]benzamide]", "values": [{"measurement": "pIC50", "setting": "[1]", "result": 7.38}]}
{"molecule": "COc1cc(N2CCN(C)CC2)ccc1Nc1ncc2c(n1)n(C1CCNCC1)c(=O)n2C", "note": "[Example 70, 2-{[2-Methoxy-4-(4-methylpiperazin-1-yl)phenyl]amino}-7-methyl-9-piperidin-4-yl-7,9-dihydro-8H-purin-8-one]", "values": [{"measurement": "pIC50", "setting": "[1]", "result": 5.27}]}
{"molecule": "Cn1c(=O)n(C2CCCC2)c2nc(Nc3ccc(C(=O)c4ccccc4)cc3)ncc21", "note": "[Example 71, 2-[(4-Benzoylphenyl)amino]-9-cyclopentyl-7-methyl-7,9-dihydro-8H-purin-8-one]", "values": [{"measurement": "pIC50", "setting": "[1]", "result": 6.23}]}
{"molecule": "Cn1c(=O)n(C2CCCC2)c2nc(Nc3ccc(N4CCOCC4)c(Cl)c3)ncc21", "note": "[Example 72, 2-[(3-Chloro-4-morpholin-4-ylphenyl)amino]-9-cyclopentyl-7-methyl-7,9-dihydro-8H-purin-8-one]", "values": [{"measurement": "pIC50", "setting": "[1]", "result": 7.57}]}
{"molecule": "Cn1c(=O)n(C2CCCC2)c2nc(Nc3ccc(CCO)cc3)ncc21", "note": "[Example 73, 9-Cyclopentyl-2-{[4-(2-hydroxyethyl)phenyl]amino}-7-methyl-7,9-dihydro-8H-purin-8-one]", "values": [{"measurement": "pIC50", "setting": "[1]", "result": 6.97}]}
{"molecule": "CC(C)Oc1ccc(Nc2ncc3c(n2)n(C2CCCC2)c(=O)n3C)cc1", "note": "[Example 74, 9-Cyclopentyl-2-[(4-isopropoxyphenyl)amino]-7-methyl-7,9-dihydro-8H-purin-8-one]", "values": [{"measurement": "pIC50", "setting": "[1]", "result": 7.54}]}
{"molecule": "Cn1c(=O)n(C2CCCC2)c2nc(Nc3ccc(Oc4ccccc4)cc3)ncc21", "note": "[Example 75, 9-Cyclopentyl-7-methyl-2-[(4-phenoxyphenyl)amino]-7,9-dihydro-8H-purin-8-one]", "values": [{"measurement": "pIC50", "setting": "[1]", "result": 6.28}]}
{"molecule": "Cn1c(=O)n(C2CCCC2)c2nc(Nc3ccc(-c4cnco4)cc3)ncc21", "note": "[Example 76, 9-Cyclopentyl-7-methyl-2-{[4-(1,3-oxazol-5-yl)phenyl]amino}-7,9-dihydro-8H-purin-8-one]", "values": [{"measurement": "pIC50", "setting": "[1]", "result": 7.74}]}
{"molecule": "Cn1c(=O)n(C2CCCC2)c2nc(Nc3ccc(N4CCCCC4)cc3)ncc21", "note": "[Example 77, 9-Cyclopentyl-7-methyl-2-[(4-piperidin-1-ylphenyl)amino]-7,9-dihydro-8H-purin-8-one]", "values": [{"measurement": "pIC50", "setting": "[1]", "result": 6.96}]}
{"molecule": "Cn1c(=O)n(C2CCCC2)c2nc(Nc3ccc(Cc4ccccc4)cc3)ncc21", "note": "[Example 78, 2-[(4-Benzylphenyl)amino]-9-cyclopentyl-7-methyl-7,9-dihydro-8H-purin-8-one]", "values": [{"measurement": "pIC50", "setting": "[1]", "result": 6.71}]}
{"molecule": "Cn1c(=O)n(C2CCCC2)c2nc(Nc3ccc(-n4cccn4)cc3)ncc21", "note": "[Example 79, 9-Cyclopentyl-7-methyl-2-{[4-(1H-pyrazol-1-yl)phenyl]amino}-7,9-dihydro-8H-purin-8-one]", "values": [{"measurement": "pIC50", "setting": "[1]", "result": 7.34}]}
{"molecule": "Cn1c(=O)n(C2CCCC2)c2nc(Nc3ccc(N4CCOCC4)cc3)ncc21", "note": "[Example 80, 9-Cyclopentyl-7-methyl-2-[(4-morpholin-4-ylphenyl)amino]-7,9-dihydro-8H-purin-8-one]", "values": [{"measurement": "pIC50", "setting": "[1]", "result": 6.85}]}
